In patent US9416111B2, “Substituted diazine and triazine spleen tyrosine kinease (Syk) inhibitors” (Merck Sharp & Dohme Corp., priority 2012, dated 2016):
pIC50: −log10 of the molar value.

target: T1, recombinant human GST-SYK (Homo sapiens, UniProt P43405); assay: Homogeneous Time-Resolved Fluorescence (HTRF) assay for the recombinant human Syk enzyme; format: biochemical; details: GST-hSYK 5 pM, ATP 25 μM, IC50 rated in classes, read-out: rhSYK Activity
T1 construct: purchased Carna Biosciences 08-176
Protocol: Homogeneous Time-Resolved Fluorescence (HTRF) Assay for the Recombinant Human Syk Enzyme
A recombinant GST-hSYK fusion protein was used to measure potency of compounds to inhibit human Syk activity. The recombinant human GST-SYK (Carna Biosciences #08-176) (5 pM final concentration) was incubated with various concentrations of the inhibitor diluted in DMSO (0.1% final concentration) for 10 minutes at room temperature in 15 mM Tris-HCl (pH 7.5), 0.01% tween 20, 2 mM DTT in 384 well plate format. To initiate the reaction the biotinylated substrate peptide (250 nM final concentration) that contains the phosphorylation site for Syk was added with magnesium (5 mM final concentration) and ATP (25 μM final concentration). Final volume of the reaction was 10 μL. Phosphorylation of the peptide was allowed to proceed for 45′ at room temperature. To quench the reaction and detect the phosphorylated product, 2 nM of a Europium-anti-phosphotyrosine antibody (Perkin Elmer #AD0161) and 70 nM SA-APC (Perkin-Elmer #CR130-100) were added together in 15 mM Tris pH 7.5, 40 mM EDTA, 0.01% tween 20. Final volume of the quenching solution was 10 μL. The resulting HTRF signal was measured after 30 minutes on an EnVision (Perkin-Elmer) reader using a time-resolved fluorescence protocol.

| SMILES | pIC50 |
| --- | --- |
| Cc1cc(Nc2nccc(C(F)(F)F)n2)cc(-c2cnc(NCC(O)CO)nc2)c1 (centres unmarked) [Example 2.13, 3-{[5-(3-methyl-5-{[4-(trifluoromethyl)pyrimidin-2-yl]amino}phenyl)pyrimidin-2-yl]amino}propane-1,2-diol] | > 7.00 |
| CCC[C@H](Nc1ncc(-c2cc(C)cc(Nc3nccc(C(F)(F)F)n3)c2)cn1)C(=O)O [Example 2.14, N-[5-(3-methyl-5-{[4-(trifluoromethyl)pyrimidin-2-yl]amino}phenyl)pyrimidin-2-yl]-L-norvaline] | > 7.00 |
| Cc1cc(Nc2nccc(C(F)(F)F)n2)cc(-c2cnc(NCC(O)C(F)F)nc2)c1 (centres unmarked) [Example 2.15, 1,1-difluoro-3-{[5-(3-methyl-5-{[4-(trifluoromethyl)pyrimidin-2-yl]amino}phenyl)pyrimidin-2-yl]amino}propan-2-ol] | > 7.00 |
| Cc1cc(Nc2nccc(C(F)(F)F)n2)cc(-c2cnc(NC3CCS(=O)(=O)C3)nc2)c1 (centres unmarked) [Example 2.16, N-(3-{2-[(1,1-dioxidotetrahydrothiophen-3-yl)amino]pyrimidin-5-yl}-5-methylphenyl)-4-(trifluoromethyl)pyrimidin-2-] | > 7.00 |
| Cc1cc(Nc2nccc(C(F)(F)F)n2)cc(-c2cnc(NCc3cnn(C)c3)nc2)c1 [Example 2.17, N-[3-methyl-5-(2-{[(1-methyl-1H-pyrazol-4-yl)methyl]amino}pyrimidin-5-yl)phenyl]-4-(trifluoromethyl)pyrimidin-2-amine] | > 7.00 |
| Cc1cc(Nc2nccc(C(F)(F)F)n2)cc(-c2cnc(NC3CCOC3)nc2)c1 (centres unmarked) [Example 2.18, N-{3-methyl-5-[2-(tetrahydrofuran-3-ylamino)pyrimidin-5-yl]phenyl}-4-(trifluoromethyl)pyrimidin-2-amine] | > 7.00 |
| Cc1cc(Nc2nccc(C(F)(F)F)n2)cc(-c2cnc(NCC3COCCO3)nc2)c1 (centres unmarked) [Example 2.19, N-(3-{2-[(1,4-dioxan-2-ylmethyl)amino]pyrimidin-5-yl}-5-methylphenyl)-4-(trifluoromethyl)pyrimidin-2-amine] | > 7.00 |
| Cc1cc(Nc2nccc(C(F)(F)F)n2)cc(-c2cnc(N3CCS(=O)(=O)CC3)nc2)c1 [Example 2.20, N-{3-[2-(1,1-dioxidothiomorpholin-4-yl)pyrimidin-5-yl]-5-methylphenyl}-4-(trifluoromethyl)pyrimidin-2-amine] | > 7.00 |
| Cc1cc(Nc2nccc(C(F)(F)F)n2)cc(-c2cnc(NC(C)c3ccccn3)nc2)c1 (centres unmarked) [Example 2.21, N-(3-methyl-5-{2-[(1-pyridin-2-ylethyl)amino]pyrimidin-5-yl}phenyl)-4-(trifluoromethyl)pyrimidin-2-amine] | > 7.00 |
| Cc1cc(Nc2nccc(C(F)(F)F)n2)cc(-c2cnc(NCC3CCC(=O)N3)nc2)c1 (centres unmarked) [Example 2.22, 5-({[5-(3-methyl-5-{[4-(trifluoromethyl)pyrimidin-2-yl]amino}phenyl)pyrimidin-2-yl]amino}methyl)pyrrolidin-2-one] | > 7.00 |
| Cc1cc(Nc2nccc(C(F)(F)F)n2)cc(-c2cnc(N3CCOC(CCO)C3)nc2)c1 (centres unmarked) [Example 2.23, 2-{4-[5-(3-methyl-5-{[4-(trifluoromethyl)pyrimidin-2-yl]amino}phenyl)pyrimidin-2-yl]morpholin-2-yl}ethanol] | 6.00 to 7.00 |
| Cc1cc(Nc2nccc(C(F)(F)F)n2)cc(-c2cnc(N3CCC(=O)N(C)CC3)nc2)c1 [Example 2.24, 4-methyl-1-[5-(3-methyl-5-{[4-(trifluoromethyl)pyrimidin-2-yl]amino}phenyl)pyrimidin-2-yl]-1,4-diazepan-5-one] | > 7.00 |
| COCC1CN(c2ncc(-c3cc(C)cc(Nc4nccc(C(F)(F)F)n4)c3)cn2)CCO1 (centres unmarked) [Example 2.25, N-(3-{2-[2-(methoxymethyl)morpholin-4-yl]pyrimidin-5-yl}-5-methylphenyl)-4-(trifluoromethyl)pyrimidin-2-amine] | 6.00 to 7.00 |
| Cc1cc(Nc2nccc(C(F)(F)F)n2)cc(-c2cnc(NCCS(N)(=O)=O)nc2)c1 [Example 2.26, 2-{[5-(3-methyl-5-{[4-(trifluoromethyl)pyrimidin-2-yl]amino}phenyl)pyrimidin-2-yl]amino}ethanesulfonamide] | > 7.00 |
| Cc1cc(Nc2nccc(C(F)(F)F)n2)cc(-c2cnc(N3CCCC(C)(O)C3)nc2)c1 (centres unmarked) [Example 2.27, 3-methyl-1-[5-(3-methyl-5-{[4-(trifluoromethyl)pyrimidin-2-yl]amino}phenyl)pyrimidin-2-yl]piperidin-3-ol] | > 7.00 |
| Cc1cc(Nc2nccc(C(F)(F)F)n2)cc(-c2cnc(N3CCC(C)(O)C3)nc2)c1 (centres unmarked) [Example 2.28, 3-methyl-1-[5-(3-methyl-5-{[4-(trifluoromethyl)pyrimidin-2-yl]amino}phenyl)pyrimidin-2-yl]pyrrolidin-3-ol] | > 7.00 |

Second part, the compound after the results:

| pIC50 | SMILES |
| --- | --- |
| 6.00 to 7.00 | Cc1cc(Nc2nccc(C(F)(F)F)n2)cc(-c2cnc(N3CCC(C)(O)CC3)nc2)c1 [Example 2.29, 4-methyl-1-[5-(3-methyl-5-{[4-(trifluoromethyl)pyrimidin-2-yl]amino}phenyl)pyrimidin-2-yl]piperidin-4-ol] |
| > 7.00 | Cc1cc(Nc2nccc(C(F)(F)F)n2)cc(-c2cnc(N(C)CCO)nc2)c1 [Example 2.30, 2-{methyl[5-(3-methyl-5-{[4-(trifluoromethyl)pyrimidin-2-yl]amino}phenyl)pyrimidin-2-yl]amino}ethanol] |
| > 7.00 | Cc1cc(Nc2nccc(C(F)(F)F)n2)cc(-c2cnc(N(CCO)CCO)nc2)c1 [Example 2.31, 2,2′-{[5-(3-methyl-5-{[4-(trifluoromethyl)pyrimidin-2-yl]amino}phenyl)pyrimidin-2-yl]imino}diethanol] |
| > 7.00 | Cc1cc(Nc2nccc(C(F)(F)F)n2)cc(-c2cnc(N(C)CC(=O)O)nc2)c1 [Example 2.32, N-methyl-N-[5-(3-methyl-5-{[4-(trifluoromethyl)pyrimidin-2-yl]amino}phenyl)pyrimidin-2-yl]glycine] |
| > 7.00 | Cc1cc(Nc2nccc(C(F)(F)F)n2)cc(-c2cnc(NCCc3c[nH]cn3)nc2)c1 [Example 2.33, N-[3-(2-{[2-(1H-imidazol-4-yl)ethyl]amino}pyrimidin-5-yl)-5-methylphenyl]-4-(trifluoromethyl)pyrimidin-2-amine] |
| > 7.00 | Cc1cc(Nc2nccc(C(F)(F)F)n2)cc(-c2cnc(NCCCO)nc2)c1 [Example 2.34, 3-{[5-(3-methyl-5-{[4-(trifluoromethyl)pyrimidin-2-yl]amino}phenyl)pyrimidin-2-yl]amino}propan-1-ol] |
| > 7.00 | Cc1cc(Nc2nccc(C(F)(F)F)n2)cc(-c2cnc(NCCCCO)nc2)c1 [Example 2.35, 4-{[5-(3-methyl-5-{[4-(trifluoromethyl)pyrimidin-2-yl]amino}phenyl)pyrimidin-2-yl]amino}butan-1-ol] |
| > 7.00 | Cc1cc(Nc2nccc(C(F)(F)F)n2)cc(-c2cnc(NC3(CO)CCCC3)nc2)c1 [Example 2.36, (1-{[5-(3-methyl-5-{[4-(trifluoromethyl)pyrimidin-2-yl]amino}phenyl)pyrimidin-2-yl]amino}cyclopentyl)methanol] |
| > 7.00 | Cc1cc(Nc2nccc(C(F)(F)F)n2)cc(-c2cnc(NCC(N)=O)nc2)c1 [Example 2.37, N~2~-[5-(3-methyl-5-{[4-(trifluoromethyl)pyrimidin-2-yl]amino}phenyl)pyrimidin-2-yl]glycinamide] |
| > 7.00 | Cc1cc(Nc2nccc(C(F)(F)F)n2)cc(-c2cnc(NCCC(N)=O)nc2)c1 [Example 2.39, N~3~-[5-(3-methyl-5-{[4-(trifluoromethyl)pyrimidin-2-yl]amino}phenyl)pyrimidin-2-yl]-beta-alaninamide] |
| > 7.00 | CC(=O)N1CCN(c2ncc(-c3cc(C)cc(Nc4nccc(C(F)(F)F)n4)c3)cn2)CC1 [Example 2.40, N-{3-[2-(4-acetylpiperazin-1-yl)pyrimidin-5-yl]-5-methylphenyl}-4-(trifluoromethyl)pyrimidin-2-amine] |
| > 7.00 | Cc1cc(Nc2nccc(C(F)(F)F)n2)cc(-c2cnc(NC3CCCCNC3=O)nc2)c1 (centres unmarked) [Example 2.42, 3-{[5-(3-methyl-5-{[4-(trifluoromethyl)pyrimidin-2-yl]amino}phenyl)pyrimidin-2-yl]amino}azepan-2-one] |
| > 7.00 | Cc1cc(Nc2nccc(C(F)(F)F)n2)cc(-c2cnc(N(C)CC(O)CO)nc2)c1 (centres unmarked) [Example 2.43, 3-{methyl[5-(3-methyl-5-{[4-(trifluoromethyl)pyrimidin-2-yl]amino}phenyl)pyrimidin-2-yl]amino}propane-1,2-diol] |
| > 7.00 | CNC(=O)CNc1ncc(-c2cc(C)cc(Nc3nccc(C(F)(F)F)n3)c2)cn1 [Example 2.44, N-methyl-N~2~-[5-(3-methyl-5-{[4-(trifluoromethyl)pyrimidin-2-yl]amino}phenyl)pyrimidin-2-yl]glycinamide] |
| > 7.00 | Cc1cc(Nc2nccc(C(F)(F)F)n2)cc(-c2cnc(N(C)CCC3OCCO3)nc2)c1 [Example 2.45, N-[2-(1,3-dioxolan-2-yl)ethyl]-N-methyl-5-(3-methyl-5-{[4-(trifluoromethyl)pyrimidin-2-yl]amino}phenyl)pyrimidin-2-amine] |
| > 7.00 | Cc1cc(Nc2nccc(C(F)(F)F)n2)cc(-c2cnc(N3CCNC(=O)C3)nc2)c1 [Example 2.46, 4-[5-(3-methyl-5-{[4-(trifluoromethyl)pyrimidin-2-yl]amino}phenyl)pyrimidin-2-yl]piperazin-2-one] |
